Kd data for three compounds are collected here from PMC6823631 (Journal of immunology (Baltimore, Md. : 1950), 2019).

What all share (experiment): fluorescence quenching titration of antibody tryptophan
For one test, the target named is IgE. The format is binding.
In test [1] the target is penicillin G specific IgG (IgG^Pen, monoclonal antibody clone P2B9). The format is binding, Mus musculus.
Test [2] has as its target anti-dansyl IgE (IgE^dansyl, clone 27-74). The format is binding.

Regarding `O=C(O)Cc1ccc2ccccc2c1` [Napht, 2-naphteleneacetic acid], on IgE, binding was characterised by a dissociation constant (Kd) of 1800 ± 300 nM. For the compound Benzylpenicilloyl, binding in test [1] was put at a Kd of 20000 ± 4000 nM. In the case of dansyl, the Kd – broadly, the free concentration of one partner at which half of the binding sites on the other are occupied at equilibrium, for simple one-to-one binding – in test [2] worked out at 29.9 ± 10 nM.
